This note sets out measurements from BindingDB's records for doi:10.1021/jm701488f (2008).

This experiment in a line: Antagonist activity at human CCR2 in PBMCs assessed as inhibition of chemotaxis.
By IC50 is commonly meant the midpoint of a concentration-inhibition curve. For the compound `O=C(CNC(=O)c1cccc(C(F)(F)F)c1)N[C@H]1CCCC[C@H]1NC(=O)c1ccc(I)cc1`, the IC50 turned out to be 160 nM.

Regarding `Nc1ccc(C(F)(F)F)cc1C(=O)NCC(=O)N[C@H]1CCCC[C@H]1NC(=O)c1ccc(S(N)(=O)=O)cc1`, the IC50 came out at 63 nM.

For `NS(=O)(=O)c1ccc(C(=O)N[C@@H]2CCCC[C@@H]2NC(=O)CNC(=O)c2cc(C(F)(F)F)ccc2NC(=O)C2CCCCC2)cc1`, the half-inhibitory concentration (IC50) came out at 0.5 nM.

Turning to `CSc1ccc(C(=O)N[C@@H]2CCCC[C@@H]2NC(=O)CNC(=O)c2cccc(C(F)(F)F)c2)cc1`, the IC50 came out at 1200 nM.

As for `NS(=O)(=O)c1ccc(C(=O)N[C@@H]2CCCC[C@@H]2NC(=O)CNC(=O)c2cccc(C(F)(F)F)c2)cc1`, the IC50 turned out to be 130 nM.
